Laboratory results taken from ChEMBL document CHEMBL3112450, “Synthesis and in vitro antitumor evaluation of primary amine substituted quinazoline linked benzimidazole” (Bioorg Med Chem Lett, 2014).

Key:
Type in all cases: functional
T47D = assay: Cytotoxicity against human T47D cells assessed as growth inhibition at 10 uM after 48 hrs by SRB assay; conditions: read-out: GI
HOP-62 [1] = assay: Cytotoxicity against human HOP62 cells assessed as cell growth at 10^-6 M after 48 hrs by SRB assay; conditions: HOP-62, 48 h, read-out: Activity
TK-10 = assay: Cytotoxicity against human TK10 cells assessed as cell growth at 10^-7 M after 48 hrs by SRB assay; conditions: TK-10, 48 h, read-out: Activity
HCC 2998 = assay: Cytotoxicity against human HCC2998 cells assessed as cell growth at 10^-4 M after 48 hrs by SRB assay; conditions: HCC 2998, 48 h, read-out: Activity
SF-295 [2] = assay: Cytotoxicity against human SF295 cells after 48 hrs by SRB assay; conditions: SF-295, 48 h
[3] = Cytotoxicity against human OVCAR4 cells assessed as cell growth at 10^-7 M after 48 hrs by SRB assay; conditions: OVCAR-4, 48 h, read-out: Activity
NCI-H460 [4] = assay: Cytotoxicity against human NCI-H460 cells assessed as cell growth at 10^-6 M after 48 hrs by SRB assay; conditions: NCI-H460, 48 h, read-out: Activity
Malme-3M = assay: Cytotoxicity against human MALME-3M cells assessed as cell growth at 10^-6 M after 48 hrs by SRB assay; conditions: read-out: Activity
RXF 393 = assay: Cytotoxicity against human RXF393 cells assessed as cell growth at 10^-7 M after 48 hrs by SRB assay; conditions: RXF 393, 48 h, read-out: Activity
MCF7 [5] = assay: Cytotoxicity against human MCF7 cells assessed as cell growth at 10^-8 M after 48 hrs by SRB assay; conditions: MCF7, 48 h, read-out: Activity
[6] = Cytotoxicity against human Hs578T cells assessed as cell growth at 10^-7 M after 48 hrs by SRB assay; conditions: Hs-578T, read-out: Activity
SK-OV-3 = assay: Cytotoxicity against human SKOV3 cells assessed as cell growth at 10^-4 M after 48 hrs by SRB assay; conditions: SK-OV-3, 48 h, read-out: Activity
HCT-116 [7] = assay: Cytotoxicity against human HCT116 cells assessed as cell growth at 10^-7 M after 48 hrs by SRB assay; conditions: HCT-116, 48 h, read-out: Activity
HCT-116 [8] = assay: Cytotoxicity against human HCT116 cells assessed as cell growth at 10^-6 M after 48 hrs by SRB assay; conditions: HCT-116, 48 h, read-out: Activity
NCI-H226 = assay: Cytotoxicity against human NCI-H226 cells assessed as cell growth at 10^-7 M after 48 hrs by SRB assay; conditions: NCI-H226, 48 h, read-out: Activity
HOP-62 [9] = assay: Cytotoxicity against human HOP62 cells assessed as cell growth at 10^-7 M after 48 hrs by SRB assay; conditions: HOP-62, 48 h, read-out: Activity
[10] = Cytotoxicity against human OVCAR5 cells assessed as cell growth at 10^-8 M after 48 hrs by SRB assay; conditions: OVCAR-5, 48 h, read-out: Activity
A498 = assay: Cytotoxicity against human A498 cells assessed as cell growth at 10^-6 M after 48 hrs by SRB assay; conditions: A498, 48 h, read-out: Activity
ACHN = assay: Cytotoxicity against human ACHN cells assessed as cell growth at 10^-4 M after 48 hrs by SRB assay; conditions: read-out: Activity
SR = assay: Cytotoxicity against human SR cells after 48 hrs by SRB assay
SF-539 = assay: Cytotoxicity against human SF539 cells after 48 hrs by SRB assay; conditions: SF-539, 48 h
K562 = assay: Cytotoxicity against human K562 cells assessed as cell growth at 10^-4 M after 48 hrs by SRB assay; conditions: K562, 48 h, read-out: Activity
HCT-116 [11] = assay: Cytotoxicity against human HCT116 cells assessed as cell growth at 10^-8 M after 48 hrs by SRB assay; conditions: HCT-116, 48 h, read-out: Activity
MOLT-4 [12] = assay: Cytotoxicity against human MOLT4 cells assessed as cell growth at 10^-7 M after 48 hrs by SRB assay; conditions: MOLT-4, 48 h, read-out: Activity
NCI-H322M = assay: Cytotoxicity against human NCI-H322M cells assessed as cell growth at 10^-6 M after 48 hrs by SRB assay; conditions: read-out: Activity
NCI-H460 [13] = assay: Cytotoxicity against human NCI-H460 cells assessed as cell growth at 10^-7 M after 48 hrs by SRB assay; conditions: NCI-H460, 48 h, read-out: Activity
MCF7 [14] = assay: Cytotoxicity against human MCF7 cells after 48 hrs by SRB assay; conditions: MCF7, 48 h
SK-MEL-5 = assay: Cytotoxicity against human SK-MEL-5 cells assessed as cell growth at 10^-8 M after 48 hrs by SRB assay; conditions: SK-MEL-5, 48 h, read-out: Activity
NCI-H522 = assay: Cytotoxicity against human NCI-H522 cells assessed as cell growth at 10^-8 M after 48 hrs by SRB assay; conditions: NCI-H522, 48 h, read-out: Activity
MOLT-4 [15] = assay: Cytotoxicity against human MOLT4 cells after 48 hrs by SRB assay; conditions: MOLT-4, 48 h
HCT-15 = assay: Cytotoxicity against human HCT15 cells assessed as cell growth at 10^-7 M after 48 hrs by SRB assay; conditions: HCT-15, 48 h, read-out: Activity
[16] = Cytotoxicity against human OVCAR4 cells assessed as cell growth at 10^-4 M after 48 hrs by SRB assay; conditions: OVCAR-4, 48 h, read-out: Activity
HT-29 [17] = assay: Cytotoxicity against human HT-29 cells assessed as cell growth at 10^-6 M after 48 hrs by SRB assay; conditions: HT-29, 48 h, read-out: Activity
[18] = Cytotoxicity against human OVCAR4 cells assessed as cell growth at 10^-6 M after 48 hrs by SRB assay; conditions: OVCAR-4, 48 h, read-out: Activity
MDA-MB-231 = assay: Cytotoxicity against human MDA-MB-231 cells assessed as cell growth at 10^-6 M after 48 hrs by SRB assay; conditions: MDA-MB-231, 48 h, read-out: Activity
CAKI-1 = assay: Cytotoxicity against human Caki1 cells after 48 hrs by SRB assay; conditions: CAKI-1, 48 h
SF-295 [19] = assay: Cytotoxicity against human SF295 cells assessed as cell growth at 10^-7 M after 48 hrs by SRB assay; conditions: SF-295, 48 h, read-out: Activity
DU-145 = assay: Cytotoxicity against human DU145 cells after 48 hrs by SRB assay; conditions: DU-145, 48 h
HT-29 [20] = assay: Cytotoxicity against human HT-29 cells after 48 hrs by SRB assay; conditions: HT-29, 48 h

Work on `C=CCn1c(C)nc2ccc(Nc3nc(Sc4ccc(N)cc4)nc4ccccc34)cc21` yielded an inhibition of growth at 10 µM (T47D) of 30%.
`C=CCn1c(C)nc2ccc(Nc3nc(Nc4ncccn4)nc4ccccc34)cc21` gave an inhibition of growth at 10 µM (T47D) of 40%.
`C=CCn1c(C)nc2ccc(Nc3nc(Nc4ccc(F)cc4)nc4ccccc34)cc21` gave a growth at 1 µM (HOP-62 [1]) of 95%, a growth at 0.1 µM (TK-10) of 104% and a growth at 100 µM (HCC 2998) of -80%. For the same compound, the GI50 (SF-295 [2]) was 6.08 µM, the LC50 (SF-295 [2]) was 51 µM and the TGI (SF-295 [2]) was 20.3 µM. The growth at 0.1 µM [3] was 95%, the growth at 1 µM (NCI-H460 [4]) was 88% and the growth at 1 µM (Malme-3M) was 101%. The growth at 0.1 µM (RXF 393) was 83%, the growth at 0.01 µM (MCF7 [5]) was 91% and the growth at 0.1 µM [6] was 99%. It also gave a growth at 100 µM (SK-OV-3) of -37%, a growth at 0.1 µM (HCT-116 [7]) of 97% and a growth at 1 µM (HCT-116 [8]) of 88%. It also gave a growth at 0.1 µM (NCI-H226) of 93%, a growth at 0.1 µM (HOP-62 [9]) of 100% and a growth at 0.01 µM [10] of 101%. It also gave a growth at 1 µM (A498) of 65%, a growth at 100 µM (ACHN) of -73% and a GI50 (SR) of 2.26 µM. For the same compound, the LC50 (SR) was > 100 µM, the TGI (SR) was 5.93 µM and the GI50 (SF-539) was 12.3 µM. It also gave an LC50 (concentration giving 50% net cell kill) (SF-539) of 53.9 µM, a TGI (SF-539) of 25.7 µM and a growth at 100 µM (K562) of -41%. For the same compound, the growth at 0.01 µM (HCT-116 [11]) was 99%, the growth at 0.1 µM (MOLT-4 [12]) was 96% and the growth at 1 µM (NCI-H322M) was 85%. For the same compound, the growth at 0.1 µM (NCI-H460 [13]) was 103%, the GI50 (MCF7 [14]) was 1.48 µM and the TGI (MCF7 [14]) was 3.44 µM. For the same compound, the growth at 0.01 µM (SK-MEL-5) was 92%, the growth at 0.01 µM (NCI-H522) was 89% and the GI50 (MOLT-4 [15]) was 1.77 µM. For the same compound, the LC50 (MOLT-4 [15]) was > 100 µM, the TGI (MOLT-4 [15]) was 6.27 µM and the growth at 0.1 µM (HCT-15) was 101%. For the same compound, the growth at 100 µM [16] was -13%, the inhibition of growth at 10 µM (T47D) was 50% and the growth at 1 µM (HT-29 [17]) was 91%. The growth at 1 µM [18] was 85%, the growth at 1 µM (MDA-MB-231) was 85% and the GI50 (CAKI-1) was 6.86 µM. For the same compound, the LC50 (concentration causing 50% net cell kill) (CAKI-1) was 92.6 µM, the TGI (CAKI-1) was 27.5 µM and the growth at 0.1 µM (SF-295 [19]) was 92%. For the same compound, the GI50 (DU-145) was 8.63 µM, the LC50 (50% lethal concentration) (DU-145) was 54.7 µM and the TGI (DU-145) was 22.8 µM. For the same compound, the GI50 (HT-29 [20]) was 3 µM, the LC50 (concentration killing 50% of cells) (HT-29 [20]) was > 100 µM and the TGI (HT-29 [20]) was 13.3 µM.
